Like-named read-outs stand apart in the source and are kept apart here.
Experiments:
Assay type in all cases: cell-based
[1] = system: third stage larvae of Haemonchus contortus; test: Haemonchus contortus, Larvae Stage 3 (HcL3) In Vitro Assay; settings: Haemonchus contortus, 96 h
D. immitis L4 larvae = test: Dirofilaria immitis, L4 Stage (DiL4) In Vitro Assay; settings: for minimal effective concentration: Dirofilaria immitis, 72 h, read-out: DiL4 MED, Minimum Effective Dose, D. immitis L4 larvae motility, in vitro; for DiMf/DiL4: larval stage selectivity, ratio of DiMf MED to DiL4 MED
[2] = system: microfilariae of Dirofilaria immitis; test: Dirofilaria immitis, Microfilaria (DiMf) In Vitro Assay; settings: Dirofilaria immitis, 72 h, read-out: DiMf MED, Minimum Effective Dose, D. immitis microfilariae motility, in vitro
[3] = read-out: HcL3 MED, Haemonchus contortus third stage larvae in vitro, class mark appended to the Ex # in Table 3
[4] = read-out: HcL3 MED, Minimum Effective Dose, H. contortus third stage larvae, approximately 96 hours

## COc1nccnc1Cc1ccc(C[C@H]2OC(=O)[C@H](CC(C)C)N(C)C(=O)[C@@H](C)OC(=O)[C@H](CC(C)C)N(C)C(=O)[C@@H](Cc3ccc(Cc4nccnc4OC)cc3)OC(=O)[C@H](CC(C)C)N(C)C(=O)[C@@H](C)OC(=O)[C@H](CC(C)C)N(C)C2=O)cc1 [Example 3-193, (3S,6R,9S,12R,15S,18R,21S,24R)-3,9,15,21-tetraisobutyl-6,18-bis(4-((3-methoxypyrazin-2-yl)methyl)benzyl)-4,10,12,16,22,24-hexamethyl-1,7,13,19-tetraoxa-4,10,16,22-tetraazacyclotetracosan-2,5,8,11,14,17,20,23-octaone]
[1]; [3]
  minimal effective concentration: < 1 µM
[1]; [4]
  minimal effective concentration: 1 µM
[1]; read-out: HcL3 MED, approximately 96 hours incubation, multiple-resistant field isolate
  minimal effective concentration: ≤ 1 µM
D. immitis L4 larvae
  minimal effective concentration: 0.0004 µM
  DiMf/DiL4: 5
[2]
  minimal effective concentration: 0.002 µM

## CC(C)C[C@H]1C(=O)O[C@H](Cc2ccc(Cc3ccc4cn[nH]c4c3)cc2)C(=O)N(C)[C@@H](CC(C)C)C(=O)O[C@H](C)C(=O)N(C)[C@@H](CC(C)C)C(=O)O[C@H](Cc2ccccc2)C(=O)N(C)[C@@H](CC(C)C)C(=O)O[C@H](C)C(=O)N1C [Example 4-18, (3S,6R,9S,12R,15S,18R,21S,24R)-6-(4-((1H-indazol-6-yl)methyl)benzyl)-18-benzyl-3,9,15,21-tetraisobutyl-4,10,12,16,22,24-hexamethyl-1,7,13,19-tetraoxa-4,10,16,22-tetraazacyclotetracosan-2,5,8,11,14,17,20,23-octaone]
[1]; [4]
  minimal effective concentration: > 10 µM
D. immitis L4 larvae
  minimal effective concentration: 0.001 µM
  DiMf/DiL4: 50
[2]
  minimal effective concentration: 0.05 µM

## CC(C)C[C@H]1C(=O)O[C@H](Cc2ccc(Cc3cccc(F)n3)cc2)C(=O)N(C)[C@@H](CC(C)C)C(=O)O[C@H](C)C(=O)N(C)[C@@H](CC(C)C)C(=O)O[C@H](Cc2ccc(Cc3cccc(F)n3)cc2)C(=O)N(C)[C@@H](CC(C)C)C(=O)O[C@H](C)C(=O)N1C [Example 3-313, (3S,6R,9S,12R,15S,18R,21S,24R)-6,18-bis(4-((6-fluoropyridin-2-yl)methyl)benzyl)-3,9,15,21-tetraisobutyl-4,10,12,16,22,24-hexamethyl-1,7,13,19-tetraoxa-4,10,16,22-tetraazacyclotetracosan-2,5,8,11,14,17,20,23-octaone]
[1]; [4]
  minimal effective concentration: 0.55 µM
D. immitis L4 larvae
  minimal effective concentration: 0.00055 µM
  DiMf/DiL4: 5.5
[2]
  minimal effective concentration: 0.003 µM

## COc1ccnc(Cc2ccc(C[C@H]3OC(=O)[C@H](CC(C)C)N(C)C(=O)[C@@H](C)OC(=O)[C@H](CC(C)C)N(C)C(=O)[C@@H](Cc4ccc(Cc5nccc(OC)n5)cc4)OC(=O)[C@H](CC(C)C)N(C)C(=O)[C@@H](C)OC(=O)[C@H](CC(C)C)N(C)C3=O)cc2)n1 [Example 3-217, (3S,6R,9S,12R,15S,18R,21S,24R)-3,9,15,21-tetraisobutyl-6,18-bis(4-((4-methoxypyrimidin-2-yl)methyl)benzyl)-4,10,12,16,22,24-hexamethyl-1,7,13,19-tetraoxa-4,10,16,22-tetraazacyclotetracosan-2,5,8,11,14,17,20,23-octaone]
[1]; [3]
  minimal effective concentration: 1 to 3.3 µM
[1]; [4]
  minimal effective concentration: 3.3 µM
D. immitis L4 larvae
  minimal effective concentration: < 0.0007 µM
  DiMf/DiL4: >4.3
[2]
  minimal effective concentration: 0.003 µM

## CC(C)C[C@H]1C(=O)O[C@H](Cc2ccc(Cc3cc(C4CC4)no3)cc2)C(=O)N(C)[C@@H](CC(C)C)C(=O)O[C@H](C)C(=O)N(C)[C@@H](CC(C)C)C(=O)O[C@H](Cc2ccc(Cc3cc(C4CC4)no3)cc2)C(=O)N(C)[C@@H](CC(C)C)C(=O)O[C@H](C)C(=O)N1C [Example 3-284, (3S,6R,9S,12R,15S,18R,21S,24R)-6,18-bis(4-((3-cyclopropylisoxazol-5-yl)methyl)benzyl)-3,9,15,21-tetraisobutyl-4,10,12,16,22,24-hexamethyl-1,7,13,19-tetraoxa-4,10,16,22-tetraazacyclotetracosan-2,5,8,11,14,17,20,23-octaone]
[1]; [4]
  minimal effective concentration: > 10 µM
D. immitis L4 larvae
  minimal effective concentration: 0.0005 µM
  DiMf/DiL4: 200
[2]
  minimal effective concentration: 0.1 µM

Reference: US11771738B2 (Zoetis Services LLC, priority 2018, dated 2023)
